Assay results published in patent US6008041A, “Bovine dipeptidylaminopeptidase 1” (Eli Lilly and Company, priority 1997, dated 1999).
Peptide text beside a SMILES is read from it. * marks the point of attachment. pNA = O=[N+]([O-])c1ccc(N*)cc1; βNA = c1ccc2cc(N*)ccc2c1; Cbz = O=C(OCc1ccccc1)*

Assays:
bDAP 1 [1] = test: Cleavage of RRBNA / Z-RRBNA (fluorescence); format: biochemical, bovine; conditions: for ability of the enzyme to cleave the substrate: 0.25 mM substrate, pH 3.5 or pH 5.0, about 15 milliunit/ml enzyme
Procedure: (§1) About 0.25 mM RRBNA or 0.25 mM Z-RRBNA was prepared in either 100 mM acetic acid, pH 3.5, or 100 mM citrate buffer, pH 5.0. To 2 ml of substrate was added bDAP 1 or bovine DAP-I (about 15 milliunit/ml solution). Rates of cleavage (monitoring fluorescence increase at 410 nm with excitation at 340 nm) were monitored. […] The pH optimum for cleavage of RRBNA was probed by monitoring the rate of RRBNA cleavage using a buffer system consisting of 50 mM acetic acid and 50 mM citrate. Various pHs were achieved using HCl or NaOH and 1.5 ml volumes were made 2.0 with 0.5 ml of a 1 mM stock solution of RRBNA (final concentration of about 0.25 mM). bDAP 1 was added (to about 15 mU/ml) and the rates of cleavage were determined.

Bovine DAP-I = Bovine DAP-I (Bos taurus, UniProt Q3ZCJ8); test: Cleavage of RRBNA / Z-RRBNA (fluorescence); format: biochemical; conditions: 0.25 mM substrate, pH 3.5 or pH 5.0, about 15 milliunit/ml enzyme
Procedure: as §1

bDAP 1 [2] = test: pH dependence of GRpNA cleavage; format: biochemical, bovine; conditions: below pH 2.5 or above pH 5
Procedure: Four mM GRpNA was prepared in 50 mM acetic acid, 50 mM glycine buffer, pH 5. HCl or NaOH was used to achieve a variety of pHs, from 5.1 to 2.3. To 180 ul of the above pH buffered substrate was added 5 ul bDAP 1 (49 milliunits/ml final). The rate of increase of absorbance at 410 nm was monitored (using a plate-reader) and the rate of increase was compared with the pH of the reaction solution.

bovine spleen DAP-I = bovine spleen DAP-I (Bos taurus, UniProt Q3ZCJ8); test: Inhibition of GFpNA cleavage by sulfhydryl modifying agents; format: biochemical; conditions: 5 mM inhibitor, 15 minutes at room temperature, pH 7, 100 mM Tris; then diluted 21-fold with 4 mM GFpNA pH 3.5, 37° C., 405 nm; read-out: decrease of rate of cleavage of GFpNA (inhibition)
Procedure: (§2) After purification or storage, bDAP 1 enzymatic activity was usually monitored by following the cleavage of the chromogenic substrate GFpNA. Typically the assay was performed by diluting the enzyme at least 11 fold into 1.0 ml of 4 mM GFpNA in 0.05M acetic acid adjusted to pH 3.5. The rate of cleavage of Gly-Phe dipeptide was monitored at 37° C. by measuring the increase in absorbance at 405 nm. One unit of activity leads to a 0.90 OD change per minute under these conditions. Unit/ml estimates can be made assuming an extinction coefficient for free p-nitroanilide (pNA) of 9.9 mM-1 cm-1 at 405 nm.
(§3) The inhibition profile of bDAP 1 toward the substrate GFpNA was compared to that of bovine spleen DAP-I using iodoacetamide and potassium tetrathionate, sulfihydryl modifying agents known to inhibit the activity of bovine spleen DAP-I. Samples of bDAP 1 or bovine spleen DAP-I were incubated for 15 minutes at room temperature in final concentrations of 0, 0.5, 5.0 or 50 mM of either inhibitor at pH 7 in 100 mM Tris buffer. The incubated solutions were then diluted 21-fold with 4 mM GFpNA, pH 3.5. The rate of cleavage was monitored by measuring the increase in absorbance at 405 nm at 37° C. Bovine DAP-I's rate of cleavage of GFpNA was decreased more than 90% by the exposure to 5 mM iodoacetamide and was 95% inhibited by 5 mM potassium tetrathionate.

bDAP 1 [3] = test: as above; format: biochemical, bovine; conditions: 0.5, 5.0 or 50 mM inhibitor, 15 minutes at room temperature, pH 7; then 4 mM GFpNA pH 3.5, 37° C.
Procedure: as §2, §3

Sequence of Bovine DAP-I (Q3ZCJ8 25-134): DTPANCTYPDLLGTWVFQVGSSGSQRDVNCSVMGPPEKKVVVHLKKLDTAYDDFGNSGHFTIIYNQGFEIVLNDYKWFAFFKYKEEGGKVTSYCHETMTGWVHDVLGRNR
Sequence of Bovine DAP-I (Q3ZCJ8 231-463): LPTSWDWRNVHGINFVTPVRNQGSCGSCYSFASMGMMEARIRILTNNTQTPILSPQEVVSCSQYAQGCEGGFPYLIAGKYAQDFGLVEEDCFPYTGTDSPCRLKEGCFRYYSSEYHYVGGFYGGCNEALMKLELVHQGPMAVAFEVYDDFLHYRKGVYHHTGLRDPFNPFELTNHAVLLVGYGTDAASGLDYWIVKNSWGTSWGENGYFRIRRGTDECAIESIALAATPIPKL
Sequence of bovine spleen DAP-I (Q3ZCJ8 25-134): as the sequence (Q3ZCJ8 25-134) above
Sequence of bovine spleen DAP-I (Q3ZCJ8 231-463): as the sequence (Q3ZCJ8 231-463) above

ability of the enzyme to cleave the substrate (bDAP 1 [1])	ability of the enzyme to cleave the substrate (Bovine DAP-I)	Compound	inhibition of GFpNA cleavage (bDAP 1 [3])	further results
unable to cleave	unable to cleave	N=C(N)NCCC[C@H](NC(=O)OCc1ccccc1)C(=O)N[C@@H](CCCNC(=N)N)C(=O)Nc1ccc2ccccc2c1 [Z-RRBNA, benzyloxycarbonyl-RRBNA] (Cbz-Arg-Arg-βNA)	–	–
–	–	N=C(N)NCCC[C@H](NC(=O)CN)C(=O)Nc1ccc([N+](=O)[O-])cc1 [GRpNA, Gly-Arg-pNA] (H-Gly-Arg-pNA)	–	activity outside the optimum range (bDAP 1 [2]): little activity
able to effectively cleave	unable to cleave	N=C(N)NCCC[C@H](NC(=O)[C@@H](N)CCCNC(=N)N)C(=O)Nc1ccc2ccccc2c1 [RRBNA, Arg-Arg-β-naphthylamide] (H-Arg-Arg-βNA)	–	activity over the pH range probed (bDAP 1 [1]; pH 3.5 to pH 5.7): significant activity
–	–	NC(=O)CI [iodoacetamide]	no evidence of significant inhibition	inhibition at 5000 µM (bovine spleen DAP-I): > 90%
–	–	O=S(=O)([O-])SSS(=O)(=O)[O-].[K+].[K+] [potassium tetrathionate]	no evidence of significant inhibition	–
